Measurements: PubChem BioAssay AID1963980 (Molecular Pharmacology Branch, DTP, NCI, 2024)

Test system: 475296-252-R-J1-PDC spheroid viability
Assay: Anticancer human tumor 475296-252-R-J1-PDC patient-derived rectal carcinoma cell line growth inhibition [PI3K]
Settings: spheroids with HUVEC and MSC; for IC50: curve of first compound; for viability, T/C: stronger effect = lower value
In short: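 Complex 3D spheroids (cancer cells + endothelial HUVEC + mesenchymal stem cells); drug pairs of targeted agent x inavolisib/alpelisib/duvelisib/copanlisib; half-log series from ~Cmax, max 10 microM if Cmax unknown; endpoint viability.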

[1] = second compound 0.00316 µM, first compound 0.0316 µM
[2] = second compound 0.00316 µM, first compound 0.1 µM
[3] = second compound 0.01 µM, first compound 0.0316 µM
[4] = second compound 0.01 µM, first compound 0.1 µM
[5] = second compound 0.0316 µM, first compound 0.0316 µM
[6] = second compound 0.0316 µM, first compound 0.1 µM
[7] = second compound 0.1 µM, first compound 0.0316 µM
[8] = second compound 0.1 µM, first compound 0.1 µM
[9] = second compound 0.316 µM, first compound 0.0316 µM
[10] = second compound 0.316 µM, first compound 0.1 µM
[11] = second compound 1 µM, first compound 0.0316 µM
[12] = second compound 1 µM, first compound 0.1 µM
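Also: spheroids exposed to agents for seven days before readout.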

SMILES: CC(=O)c1c(C)c2cnc(Nc3ccc(N4CCNCC4)cn3)nc2n(C2CCCC2)c1=O + COc1c(OCCCN2CCOCC2)ccc2c3n(c(=NC(=O)c4cnc(N)nc4)nc12)CCN3
- IC50 (second compound 0.00316 µM): > 100 nM
- IC50 (second compound 0.01 µM): > 100 nM
- IC50 (second compound 0.0316 µM): > 100 nM
- IC50 (second compound 0.1 µM): > 100 nM
- IC50 (second compound 0.316 µM): > 100 nM
- IC50 (second compound 1 µM): > 100 nM
- viability, T/C (second compound 0.00316 µM, first compound 0.000316 µM): 108%
- viability, T/C (second compound 0.00316 µM, first compound 0.001 µM): 101%
- viability, T/C (second compound 0.00316 µM, first compound 0.00316 µM): 104%
- viability, T/C (second compound 0.00316 µM, first compound 0.01 µM): 119%
- viability, T/C [1]: 113%
- viability, T/C [2]: 108%
- viability, T/C (second compound 0.01 µM, first compound 0.000316 µM): 97.4%
- viability, T/C (second compound 0.01 µM, first compound 0.001 µM): 99.5%
- viability, T/C (second compound 0.01 µM, first compound 0.00316 µM): 95.9%
- viability, T/C (second compound 0.01 µM, first compound 0.01 µM): 99.5%
- viability, T/C [3]: 98.5%
- viability, T/C [4]: 99.8%
- viability, T/C (second compound 0.0316 µM, first compound 0.000316 µM): 96.2%
- viability, T/C (second compound 0.0316 µM, first compound 0.001 µM): 86%
- viability, T/C (second compound 0.0316 µM, first compound 0.00316 µM): 90.5%
- viability, T/C (second compound 0.0316 µM, first compound 0.01 µM): 98.7%
- viability, T/C [5]: 105%
- viability, T/C [6]: 99.8%
- viability, T/C (second compound 0.1 µM, first compound 0.000316 µM): 77.8%
- viability, T/C (second compound 0.1 µM, first compound 0.001 µM): 82.3%
- viability, T/C (second compound 0.1 µM, first compound 0.00316 µM): 97.6%
- viability, T/C (second compound 0.1 µM, first compound 0.01 µM): 77.8%
- viability, T/C [7]: 83.9%
- viability, T/C [8]: 84.1%
- viability, T/C (second compound 0.316 µM, first compound 0.000316 µM): 71.6%
- viability, T/C (second compound 0.316 µM, first compound 0.001 µM): 75.5%
- viability, T/C (second compound 0.316 µM, first compound 0.00316 µM): 70.7%
- viability, T/C (second compound 0.316 µM, first compound 0.01 µM): 72.6%
- viability, T/C [9]: 82.8%
- viability, T/C [10]: 84.6%
- viability, T/C (second compound 1 µM, first compound 0.000316 µM): 60.7%
- viability, T/C (second compound 1 µM, first compound 0.001 µM): 56.7%
- viability, T/C (second compound 1 µM, first compound 0.00316 µM): 69.3%
- viability, T/C (second compound 1 µM, first compound 0.01 µM): 61.5%
- viability, T/C [11]: 59.7%
- viability, T/C [12]: 52.4%

SMILES: Cn1nccc1Nc1nccc(-c2ccn(C(CO)c3ccc(Cl)c(F)c3)c(=O)c2)n1 (centres undefined) + COc1c(OCCCN2CCOCC2)ccc2c3n(c(=NC(=O)c4cnc(N)nc4)nc12)CCN3
- IC50 (second compound 0.00316 µM): > 10000 nM
- IC50 (second compound 0.01 µM): > 10000 nM
- IC50 (second compound 0.0316 µM): 2780 nM
- IC50 (second compound 0.1 µM): 1020 nM
- IC50 (second compound 0.316 µM): 612 nM
- IC50 (second compound 1 µM): 129 nM
- viability, T/C [1]: 88.1%
- viability, T/C [2]: 107%
- viability, T/C (second compound 0.00316 µM, first compound 0.316 µM): 95.3%
- viability, T/C (second compound 0.00316 µM, first compound 1 µM): 94.8%
- viability, T/C (second compound 0.00316 µM, first compound 3.16 µM): 77.2%
- viability, T/C (second compound 0.00316 µM, first compound 10 µM): 58.3%
- viability, T/C [3]: 88.5%
- viability, T/C [4]: 88.2%
- viability, T/C (second compound 0.01 µM, first compound 0.316 µM): 88.4%
- viability, T/C (second compound 0.01 µM, first compound 1 µM): 85.7%
- viability, T/C (second compound 0.01 µM, first compound 3.16 µM): 70.6%
- viability, T/C (second compound 0.01 µM, first compound 10 µM): 50.5%
- viability, T/C [5]: 92.5%
- viability, T/C [6]: 89.7%
- viability, T/C (second compound 0.0316 µM, first compound 0.316 µM): 80.2%
- viability, T/C (second compound 0.0316 µM, first compound 1 µM): 84.6%
- viability, T/C (second compound 0.0316 µM, first compound 3.16 µM): 45.6%
- viability, T/C (second compound 0.0316 µM, first compound 10 µM): 42.7%
- viability, T/C [7]: 78%
- viability, T/C [8]: 81%
- viability, T/C (second compound 0.1 µM, first compound 0.316 µM): 64.3%
- viability, T/C (second compound 0.1 µM, first compound 1 µM): 53.6%
- viability, T/C (second compound 0.1 µM, first compound 3.16 µM): 24%
- viability, T/C (second compound 0.1 µM, first compound 10 µM): 8.76%
- viability, T/C [9]: 74.7%
- viability, T/C [10]: 78.5%
- viability, T/C (second compound 0.316 µM, first compound 0.316 µM): 58.8%
- viability, T/C (second compound 0.316 µM, first compound 1 µM): 43.8%
- viability, T/C (second compound 0.316 µM, first compound 3.16 µM): 7.08%
- viability, T/C (second compound 0.316 µM, first compound 10 µM): 3.11%
- viability, T/C [11]: 54.9%
- viability, T/C [12]: 51.5%
- viability, T/C (second compound 1 µM, first compound 0.316 µM): 42.6%
- viability, T/C (second compound 1 µM, first compound 1 µM): 29.2%
- viability, T/C (second compound 1 µM, first compound 3.16 µM): 10%
- viability, T/C (second compound 1 µM, first compound 10 µM): 5.49%
